Test [1] can be described thus: Inhibition of Aspergillus niger amyloglucosidase using starch as substrate after 10 mins by Miller method.
The target in a further test is T1, Alpha-glucosidase (Aspergillus niger, UniProt P56526).
T1 sequence (P56526 whole entry): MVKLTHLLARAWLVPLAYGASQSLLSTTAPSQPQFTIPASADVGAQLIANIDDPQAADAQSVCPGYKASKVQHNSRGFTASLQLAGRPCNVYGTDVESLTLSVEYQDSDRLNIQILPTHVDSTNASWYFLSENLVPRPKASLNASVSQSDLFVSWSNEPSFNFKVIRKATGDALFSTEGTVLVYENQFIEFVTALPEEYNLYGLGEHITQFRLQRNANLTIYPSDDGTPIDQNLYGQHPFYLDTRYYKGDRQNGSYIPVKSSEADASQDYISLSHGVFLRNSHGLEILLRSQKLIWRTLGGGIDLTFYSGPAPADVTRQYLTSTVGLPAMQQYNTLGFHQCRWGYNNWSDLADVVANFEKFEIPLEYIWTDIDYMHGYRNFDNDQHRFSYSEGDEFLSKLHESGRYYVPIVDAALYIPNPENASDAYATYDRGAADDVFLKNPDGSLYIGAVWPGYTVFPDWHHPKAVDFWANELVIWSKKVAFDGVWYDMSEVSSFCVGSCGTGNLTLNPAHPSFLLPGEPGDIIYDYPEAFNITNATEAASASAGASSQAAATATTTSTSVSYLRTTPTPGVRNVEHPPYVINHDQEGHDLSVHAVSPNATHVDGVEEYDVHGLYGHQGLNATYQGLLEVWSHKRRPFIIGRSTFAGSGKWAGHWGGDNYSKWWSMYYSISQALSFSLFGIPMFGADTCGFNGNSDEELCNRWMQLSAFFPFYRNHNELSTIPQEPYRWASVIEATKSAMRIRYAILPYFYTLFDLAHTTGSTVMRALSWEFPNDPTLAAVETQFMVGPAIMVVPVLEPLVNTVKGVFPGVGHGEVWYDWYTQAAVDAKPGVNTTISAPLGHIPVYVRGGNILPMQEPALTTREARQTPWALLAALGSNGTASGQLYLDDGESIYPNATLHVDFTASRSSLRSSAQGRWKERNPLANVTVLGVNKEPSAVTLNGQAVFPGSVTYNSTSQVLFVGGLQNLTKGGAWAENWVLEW
Nature of the test: Inhibition of Aspergillus niger alpha-glucosidase using p-nitrophenyl-alpha-D-glucopyranoside as substrate preincubated for 1 hr followed by substrate addition measured after 10 mins by spectrophotometric method.

The target in a further test is T2, Alpha-galactosidase (Escherichia coli, UniProt P16551).
T2 sequence (P16551 whole entry): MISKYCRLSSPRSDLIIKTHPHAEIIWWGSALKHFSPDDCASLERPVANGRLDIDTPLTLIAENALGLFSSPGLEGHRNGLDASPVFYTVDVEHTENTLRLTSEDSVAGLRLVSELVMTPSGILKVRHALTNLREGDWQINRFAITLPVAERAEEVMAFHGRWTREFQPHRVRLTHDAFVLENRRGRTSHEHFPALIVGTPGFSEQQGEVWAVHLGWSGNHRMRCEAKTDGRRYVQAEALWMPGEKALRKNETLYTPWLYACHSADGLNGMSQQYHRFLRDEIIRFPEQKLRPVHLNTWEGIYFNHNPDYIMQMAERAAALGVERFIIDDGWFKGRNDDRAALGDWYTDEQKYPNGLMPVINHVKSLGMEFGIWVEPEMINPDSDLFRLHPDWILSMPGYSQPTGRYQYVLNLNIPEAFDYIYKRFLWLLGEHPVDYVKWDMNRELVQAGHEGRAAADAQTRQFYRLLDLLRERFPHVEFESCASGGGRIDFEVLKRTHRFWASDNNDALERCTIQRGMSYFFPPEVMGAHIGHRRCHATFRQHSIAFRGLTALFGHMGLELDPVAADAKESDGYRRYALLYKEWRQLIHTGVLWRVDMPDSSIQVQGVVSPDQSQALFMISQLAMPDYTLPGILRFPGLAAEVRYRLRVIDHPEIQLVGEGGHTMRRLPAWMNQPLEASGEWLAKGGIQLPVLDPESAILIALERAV
The test can be described thus: Inhibition of Escherichia coli alpha-galactosidase using p-nitrophenyl-alpha-D-galactopyranoside as substrate preincubated for 1 hr followed by substrate addition measured after 10 mins by spectrophotometric method.

A further test deals with T3, Alpha-mannosidase (Canavalia ensiformis, UniProt C0HJB3).
T3 sequence (C0HJB3 whole entry): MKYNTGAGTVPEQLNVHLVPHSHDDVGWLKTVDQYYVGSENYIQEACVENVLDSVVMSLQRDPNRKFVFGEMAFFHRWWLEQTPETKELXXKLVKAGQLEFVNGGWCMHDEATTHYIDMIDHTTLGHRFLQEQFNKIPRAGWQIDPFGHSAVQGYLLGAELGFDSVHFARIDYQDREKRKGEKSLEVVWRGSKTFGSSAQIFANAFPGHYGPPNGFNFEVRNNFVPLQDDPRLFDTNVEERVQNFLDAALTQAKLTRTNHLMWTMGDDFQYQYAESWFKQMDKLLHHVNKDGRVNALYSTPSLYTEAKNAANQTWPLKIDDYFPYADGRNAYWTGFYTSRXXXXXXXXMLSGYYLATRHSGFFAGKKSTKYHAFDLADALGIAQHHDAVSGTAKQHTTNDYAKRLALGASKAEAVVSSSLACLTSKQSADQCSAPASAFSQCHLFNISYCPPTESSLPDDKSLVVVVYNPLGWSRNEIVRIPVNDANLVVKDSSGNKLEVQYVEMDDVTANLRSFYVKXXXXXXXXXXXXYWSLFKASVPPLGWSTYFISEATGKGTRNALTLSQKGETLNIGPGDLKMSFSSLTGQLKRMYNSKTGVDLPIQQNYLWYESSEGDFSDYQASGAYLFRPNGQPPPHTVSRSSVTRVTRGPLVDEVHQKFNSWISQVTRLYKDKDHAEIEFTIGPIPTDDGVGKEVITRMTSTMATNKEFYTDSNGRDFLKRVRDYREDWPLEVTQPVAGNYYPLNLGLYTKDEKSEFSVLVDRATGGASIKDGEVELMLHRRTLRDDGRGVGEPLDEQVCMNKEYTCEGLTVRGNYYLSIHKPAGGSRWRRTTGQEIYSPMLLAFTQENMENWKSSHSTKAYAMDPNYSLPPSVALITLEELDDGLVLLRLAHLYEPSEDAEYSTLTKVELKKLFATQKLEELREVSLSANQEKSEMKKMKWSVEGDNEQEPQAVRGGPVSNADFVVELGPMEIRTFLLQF
Nature of the test: Inhibition of Canavalia ensiformis alpha-mannosidase using p-nitrophenyl-alpha-D-mannopyranoside as substrate preincubated for 1 hr followed by substrate addition measured after 10 mins by spectrophotometric method.

Test [2] addresses T4, Alpha-galactosidase (Escherichia coli) (UniProt P16551).
T4 sequence (whole entry): T2 sequence (P16551 whole entry)
Nature of the test: Inhibition of Escherichia coli alpha-galactosidase at 1 mM using p-nitrophenyl-alpha-D-galactopyranoside as substrate preincubated for 1 hr followed by substrate addition measured after 10 mins by spectrophotometric method.

A further test concerns Aspergillus niger. The test can be described thus: Inhibition of Aspergillus niger amyloglucosidase at 1 mM using starch as substrate after 10 mins by Miller method.

Each structure is given as a SMILES string. The source made the active and inactive calls. No cut-off for these calls is given here.

Usually IC50 stands for the concentration needed to halve the response being measured. For `OC[C@@H]1N[C@H]([C@@H](O)CO)[C@@H]1O`, the IC50 in test [1] was 78.2 µM; against Alpha-glucosidase it was 53.7 µM; on Alpha-galactosidase it was 54.6 µM; against Alpha-mannosidase, 76 µM.

For `OC[C@@H]1N[C@H](CO)[C@@H]1O`, the figures for the concentration for half-maximal inhibition (IC50) (in test [1]; at Alpha-glucosidase; at Alpha-mannosidase) were 817 µM, 89.4 µM and 200 µM, respectively. Besides, the inhibition result in test [2] is “inactive”.

Take `OCCN1C[C@H](O)[C@@H](O)[C@H](O)[C@H]1CO` [MIGLITOL]: the half-maximal inhibitory concentration (IC50) in test [1] is 201 µM; at Alpha-glucosidase, 57.1 µM. The inhibition entry in test [2] is “inactive”.

For `CN1[C@H](C(=O)O)[C@H](O)[C@@H]1CO`, the IC50 is 64.6 µM against Alpha-glucosidase and 83.8 µM on Alpha-mannosidase. The inhibition entry (in test [2]; in the test on Aspergillus niger) was “inactive” throughout.

For the origin of these results see ChEMBL document CHEMBL4177631, “Polyhydroxylated azetidine iminosugars: Synthesis, glycosidase inhibitory activity and molecular docking studies” (Bioorg Med Chem Lett, 2017).
